Reference: patent US10550110B2, “Tetrahydroquinoline sulfonamide derivatives as inverse agonists of retinoid-related orphan receptor gamma (ROR gamma (t))” (GALDERMA RESEARCH & DEVELOPMENT, priority 2014, dated 2020)

Each molecule was assayed against T1, ROR gamma ligand-binding domain (LBD) (hRORg) (Homo sapiens, UniProt P51449) (assay: GAL4-RORγ transactivation (luciferase reporter, HG5LN HeLa line)). Details: HG5LN HeLa line with GAL4 DBD fused to ROR gamma LBD, 18 hours incubation.
T1 construct: expressed in transfected cells; host or cells: HG5LN (HeLa line with GAL4-responsive luciferase reporter)
T1 sequence (P51449 269-508 limits assumed): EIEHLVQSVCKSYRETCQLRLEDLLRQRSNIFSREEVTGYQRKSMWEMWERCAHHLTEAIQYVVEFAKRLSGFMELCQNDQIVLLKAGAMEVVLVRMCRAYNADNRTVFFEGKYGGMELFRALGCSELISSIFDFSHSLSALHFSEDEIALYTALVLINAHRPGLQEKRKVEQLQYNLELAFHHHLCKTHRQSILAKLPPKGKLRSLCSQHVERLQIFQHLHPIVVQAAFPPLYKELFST
Format: cell-based
Description: GAL4—RORγ Transactivation
The RORγ transactivation model was developed from the line HG5LN, which is a HeLa line that stably expresses a luciferase reporter gene controlled by a pentamer of the GAL4 recognition domain of yeast and of a β-globin promoter. The HG5LN line was stably transfected by the DNA-binding domain (DBD) of GAL4 fused to the ROR gamma ligand-binding domain (LBD). Molecules that inhibit the ROR gamma constitutive activity reduce the luciferase expression, thus leading to a reduction in the emitted luminescence.
The cells are seeded in 384-well plates (5000 cells in 45 μL/well of culture medium containing 10% fetal calf serum) and incubated for 4 hours at 37° C., 5% CO2. 5 μL of the test molecules (compounds described in the tables described above) are then added to each well and the plates are incubated for 18 hours at a temperature of 37° C. under 5% of CO2. 20 μL of luciferase substrate (Promega) are added to each well and the luminescence emitted is read by a microplate reader.
The luminescence units (“RLU”) are normalized by positive controls (“POS” containing a saturated concentration of N-(2,2,2-trifluoroethyl)-N-[4-[2,2,2-trifluoro-1-hydroxy-1-(trifluoromethyl)ethyl]phenyl])benzenesulfonamide and negative controls (“NEG” containing DMSO): % inhibition=((RLU-NEG)*100)/(POS-NEG). The IC50 values are calculated from a 4-parameter logistic model using the XLFit software (IDBS).

SMILES | IC50 [nM]
CCc1ccc(N(CC(C)C)S(=O)(=O)c2ccc3c(c2)C(O)CCN3CC2CCS(=O)(=O)C2)cc1 (stereo not shown) [Compound 22, 1-(1,1-dioxotetrahydro-1λ^6-thiophen-3-ylmethyl)-4-hydroxy-1,2,3,4-tetrahydroquinoline-6-sulfonic acid (4-ethylphenyl)isobutylamide] | 100 to 1000
CCc1ccc(N(CC(C)C)S(=O)(=O)c2ccc3c(c2)C(O)CCN3Cc2ccc(C(=O)NO)cc2)cc1 (stereo not shown) [Compound 47, 4-{6-[(4-ethylphenyl)isobutylsulfamoyl]-4-hydroxy-3,4-dihydro-2H-quinolin-1-ylmethyl}-N-hydroxybenzamide] | > 1000
CCc1ccc(N(CC(C)C)S(=O)(=O)c2ccc3c(c2)C(O)CCN3CC2CCN(C(=O)OC(C)(C)C)CC2)cc1 (stereo not shown) [Compound 12, tert-butyl ester of 4-{6-[(4-ethylphenyl)isobutylsulfamoyl]-4-hydroxy-3,4-dihydro-2H-quinolin-1-ylmethyl}piperidine-1-carboxylic acid] | > 1000
CCc1ccc(N(CC(C)C)S(=O)(=O)c2ccc3c(c2)C(=O)CCN3C2CCNCC2)cc1 [Compound 55, 4-oxo-1-piperidin-4-yl-1,2,3,4-tetrahydroquinoline-6-sulfonic acid (4-ethylphenyl)isobutylamide] | > 1000
CCc1ccc(N(CC(C)C)S(=O)(=O)c2ccc3c(c2)C(O)CCN3[C@H]2CC[C@H](C(=O)OC)CC2)cc1 (stereo partly drawn) [Compound 48, methyl (1R,4R)-4-(6-(N-(4-ethylphenyl)-N-isobutylsulfamoyl)-4-hydroxy-3,4-dihydroquinolin-1(2H)-yl)cyclohexane-1-carboxylate] | > 1000
CCc1ccc(N(CC(C)C)S(=O)(=O)c2ccc3c(c2)C(=O)CCN3CC2CCS(=O)(=O)CC2)cc1 [Compound 7, 1-(1,1-dioxohexahydro-1λ^6-thiopyran-4-ylmethyl)-4-oxo-1,2,3,4-tetrahydroquinoline-6-sulfonic acid (4-ethylphenyl)isobutylamide] | > 1000
CCc1ccc(N(CC(C)C)S(=O)(=O)c2ccc3c(c2)C(O)CCN3Cc2nonc2C)cc1 (stereo not shown) [Compound 32, 4-hydroxy-1-(4-methylfurazan-3-ylmethyl)-1,2,3,4-tetrahydroquinoline-6-sulfonic acid (4-ethylphenyl)isobutylamide] | 100 to 1000
CCc1ccc(N(CC(C)C)S(=O)(=O)c2ccc3c(c2)C(=O)CCN3CC2CCN(C(=O)OC(C)(C)C)CC2)cc1 [Compound 5, tert-butyl ester of 4-{6-[(4-ethylphenyl)isobutylsulfamoyl]-4-oxo-3,4-dihydro-2H-quinolin-1-ylmethyl}piperidine-1-carboxylic acid] | > 1000
CCc1ccc(N(CC(C)C)S(=O)(=O)c2ccc3c(c2)C(O)CCN3CC2CCC(O)CC2)cc1 (single isomer, unassigned) [Compound 43, 4-hydroxy-1-(4-hydroxycyclohexylmethyl)-1,2,3,4-tetrahydroquinoline-6-sulfonic acid (4-ethylphenyl)isobutylamide] | 100 to 1000
CCc1ccc(N(CC(C)C)S(=O)(=O)c2ccc3c(c2)C(O)CCN3CC2CNC(=O)C2)cc1 (stereo not shown) [Compound 26, 4-hydroxy-1-(5-oxopyrrolidin-3-ylmethyl)-1,2,3,4-tetrahydroquinoline-6-sulfonic acid (4-ethylphenyl)isobutylamide] | 100 to 1000
CCc1ccc(N(CC(C)C)S(=O)(=O)c2ccc3c(c2)C(=O)CCN3C2CCN(S(C)(=O)=O)CC2)cc1 [Compound 63, 1-(1-methanesulfonylpiperidin-4-yl)-4-oxo-1,2,3,4-tetrahydroquinoline-6-sulfonic acid (4-ethylphenyl)isobutylamide] | > 1000
CCc1ccc(N(CC(C)C)S(=O)(=O)c2ccc3c(c2)C(O)CCN3Cc2ccncn2)cc1 (stereo not shown) [Compound 21, 4-hydroxy-1-pyrimidin-4-ylmethyl-1,2,3,4-tetrahydroquinoline-6-sulfonic acid (4-ethylphenyl)isobutylamide] | < 100
CCc1ccc(N(CC(C)C)S(=O)(=O)c2ccc3c(c2)C(O)CCN3CC2CCN(C(C)=O)CC2)cc1 (stereo not shown) [Compound 58, 1-(1-acetylpiperidin-4-ylmethyl)-4-hydroxy-1,2,3,4-tetrahydroquinoline-6-sulfonic acid (4-ethylphenyl)isobutylamide] | > 1000
CCc1ccc(N(CC(C)C)S(=O)(=O)c2ccc3c(c2)C(O)CCN3CC2CCC(C#N)CC2)cc1 (stereo not shown) [Compound 35, 1-(4-cyanocyclohexylmethyl)-4-hydroxy-1,2,3,4-tetrahydroquinoline-6-sulfonic acid (4-ethylphenyl)isobutylamide] | > 1000
CCc1ccc(N(CC(C)C)S(=O)(=O)c2ccc3c(c2)C(O)CCN3C2CCNC(=O)C2)cc1 (single isomer, unassigned) [Compound 53, 4-hydroxy-1-(2-oxopiperidin-4-yl)-1,2,3,4-tetrahydroquinoline-6-sulfonic acid (4-ethylphenyl)isobutylamide] | > 1000
COc1ccc(N(C(C)C)S(=O)(=O)c2ccc3c(c2)C(O)CCN3Cc2cn[nH]c2)c(C)c1 (stereo not shown) [Compound 65, 4-hydroxy-1-(1H-pyrazol-4-ylmethyl)-1,2,3,4-tetrahydroquinoline-6-sulfonic acid isopropyl(4-methoxy-2-methylphenyl)amide] | > 1000
CCc1ccc(N(CC(C)C)S(=O)(=O)c2ccc3c(c2)C(=O)CCN3CC2(C)CCOCC2)cc1 [Compound 6, 1-(4-methyltetrahydropyran-4-ylmethyl)-4-oxo-1,2,3,4-tetrahydroquinoline-6-sulfonic acid (4-ethylphenyl)isobutylamide] | 100 to 1000
CCc1ccc(N(CC(C)C)S(=O)(=O)c2ccc3c(c2)C(O)CCN3C2CCN(C(=O)OC(C)(C)C)CC2)cc1 (stereo not shown) [Compound 13, tert-butyl ester of 4-{6-[(4-ethylphenyl)isobutylsulfamoyl]-4-hydroxy-3,4-dihydro-2H-quinolin-1-yl}piperidine-1-carboxylic acid] | > 1000
CCc1ccc(N(CC(C)C)S(=O)(=O)c2ccc3c(c2)C(=O)CCN3CC2CCC(=O)N2)cc1 (stereo not shown) [Compound 3, 4-oxo-1-(5-oxopyrrolidin-2-ylmethyl)-1,2,3,4-tetrahydroquinoline-6-sulfonic acid (4-ethylphenyl)isobutylamide] | > 1000
CCc1ccc(N(CC(C)C)S(=O)(=O)c2ccc3c(c2)C(O)CCN3[C@H]2CC[C@@H](C(=O)OC)CC2)cc1 (stereo partly drawn) [Compound 49, methyl (1S,4S)-4-(6-(N-(4-ethylphenyl)-N-isobutylsulfamoyl)-4-hydroxy-3,4-dihydroquinolin-1(2H)-yl)cyclohexane-1-carboxylate] | > 1000
CCc1ccc(N(CC(C)C)S(=O)(=O)c2ccc3c(c2)C(O)CCN3CC2COC2)cc1 (stereo not shown) [Compound 18, 4-hydroxy-1-oxetan-3-ylmethyl-1,2,3,4-tetrahydroquinoline-6-sulfonic acid (4-ethylphenyl)isobutylamide] | 100 to 1000
CCc1ccc(N(CC(C)C)S(=O)(=O)c2ccc3c(c2)C(O)CCN3CC2CCN(C(=O)OC)C2)cc1 (stereo not shown) [Compound 50, methyl ester of 3-{6-[(4-ethylphenyl)isobutylsulfamoyl]-4-hydroxy-3,4-dihydro-2H-quinolin-1-ylmethyl}pyrrolidine-1-carboxylic acid] | > 1000
